From patent US20260234115A1, “LIPID COMPOUNDS, COMPOSITIONS, AND USES THEREOF” (Liberate Bio, Inc., priority 2023, published 2026)
Marks after values point to notes of the source that are not given here.

Test system: mouse organs
Experiment: In vivo activity screening in mice: organ mean total flux (p/s) of luciferase activity after injection of F2 LNP pools (Table 6, FIG. 7A-7C)
Conditions: luciferase mRNA
Experimental: Small rodent biodistribution studies were performed in mice (e.g., C57BL/6J, Balb-c, CD-1, etc.). For evaluating LNP biodistribution and tissue activity upon systemic administration, C57BL/6J mice received dose administration by single intravenous injection via tail vein with LNP formulations (individual or pooled) in PBS, at different dose (0.25-3 mg/kg) levels of firefly luciferase mRNA. At predetermined time points (4-6 hours post-injection), the animals were anesthetized via isoflurane and subjected to in-life imaging sessions for bioluminescence using an In Vivo Imaging System (IVIS). All animals were dosed with D-Luciferin at 15 mg/mL via subcutaneous (SC) injection at 0.2 mL/animal. Animals had their abdomen hair shaved using an animal trimmer. They were then placed so their shaved belly faced up toward the IVIS camera. Whole body imaging sessions were performed 10-15 minutes following D-Luciferin administration.
For in detail organ distribution and activity of LNP formulations, ex vivo imaging sessions were also performed. All animals received SC D-Luciferin and were then euthanized by isoflurane overdose, followed by cardiac perfusion with saline. Following perfusion, the organs were collected and subjected to IVIS imaging for luminescence within 10-15 minutes of D-Luciferin injection.
All IVIS images were processed with a computer software to identify the regions of interests for individual organs to detect the total flux (p/s) values as luminescence quantification. Then the total flux values were graphed to evaluate the in vivo activity in each collected organ.
Small rodent biodistribution studies were performed in mice according to the General Study Protocols in Example 3(a). LNPs incorporating lipid compounds were prepared in Formulation F2, with MC3 as lipid compound (Cayman Chemical) prepared using Formulation F2 for comparison. LNP pools (with firefly luciferase mRNA encapsulated) were injected into mice at varying doses, and organ mean total flux (p/s) results (measuring luciferase activity) were then collected according to Example 3(a).
LNPs comprising MC3 used as a control and for cross-mouse comparison. Dose is in mg/kg; LC is Lipid Compound according to Table 1.
Additional screening results for Compounds 7, 13, 14, 26, 33, 38, 39, 40, 48, 60, 61, 89, 103, and 109 in spleen, femur, and muscle are shown in FIG. 7A, FIG. 7B, and FIG. 7C, with MC3 as a used as a control for comparison.

Compound: CCCCC/C=C\CCOC(=O)CCCCC(=O)OCC(COC(=O)CCCCC(=O)OCC/C=C\CCCCC)(COC(=O)CCCCC(=O)OCC/C=C\CCCCC)COC(=O)CCC(CCCCCC)OC(=O)NCCN1CCCC1 (centres unmarked) [Compound 13, O6-[2,2-bis[[6-[(Z)-non-3-enoxy]-6-oxo-hexanoyl]oxymethyl]-3-[4-(2-pyrrolidin-1-ylethylcarbamoyloxy)decanoyloxy]propyl]O1-[(Z)-non-3-enyl]hexanedioate]
- Organ Mean Total Flux Femur (Mouse 12, dose 0.5 mg/kg): 4.8 p/s (×10^6)
- Organ Mean Total Flux Heart (Mouse 12, dose 0.5 mg/kg): 1.0 p/s (×10^6)
- Organ Mean Total Flux Kidney (Mouse 12, dose 0.5 mg/kg): 4.5 p/s (×10^6)
- Organ Mean Total Flux Liver (Mouse 12, dose 0.5 mg/kg): 620.0 p/s (×10^6)
- Organ Mean Total Flux Lung (Mouse 12, dose 0.5 mg/kg): 16.7 p/s (×10^6)
- Organ Mean Total Flux Muscle (Mouse 12, dose 0.5 mg/kg): 17.0 p/s (×10^6)
- Organ Mean Total Flux Pancreas (Mouse 12, dose 0.5 mg/kg): 1.1 p/s (×10^6)
- Organ Mean Total Flux Spleen (Mouse 12, dose 0.5 mg/kg): 21.3 p/s (×10^6)

Compound: CCCCC/C=C\CCOC(=O)CCCCC(=O)OCC(COC(=O)CCCCC(=O)OCC/C=C\CCCCC)(COC(=O)CCC(CCCCCC)OC(=O)NCCN1CCCC1)COC(=O)CCC(OCCCCCCCC)OCCCCCCCC (centres unmarked) [Compound 15, O6-[2-(4,4-dioctoxybutanoyloxymethyl)-2-[[6-[(Z)-non-3-enoxy]-6-oxo-hexanoyl]oxymethyl]-3-[4-(2-pyrrolidin-1-ylethylcarbamoyloxy)decanoyloxy]propyl]O1-[(Z)-non-3-enyl]hexanedioate]
- Organ Mean Total Flux Femur (Mouse 13, dose 0.5 mg/kg): 1.3 p/s (×10^6)
- Organ Mean Total Flux Heart (Mouse 13, dose 0.5 mg/kg): 1.4 p/s (×10^6)
- Organ Mean Total Flux Kidney (Mouse 13, dose 0.5 mg/kg): 0.4 p/s (×10^6)
- Organ Mean Total Flux Liver (Mouse 13, dose 0.5 mg/kg): 992.3 p/s (×10^6)
- Organ Mean Total Flux Lung (Mouse 13, dose 0.5 mg/kg): 3.7 p/s (×10^6)
- Organ Mean Total Flux Muscle (Mouse 13, dose 0.5 mg/kg): 1.1 p/s (×10^6)
- Organ Mean Total Flux Pancreas (Mouse 13, dose 0.5 mg/kg): 0.1 p/s (×10^6)
- Organ Mean Total Flux Spleen (Mouse 13, dose 0.5 mg/kg): 1.6 p/s (×10^6)

Compound: CCCCC/C=C\CCOC(=O)CCCCCC(=O)OCC(COC(=O)CCCCCCOC(=O)C(CCCC)CCCCCC)(COC(=O)CCCCCCOC(=O)C(CCCC)CCCCCC)COC(=O)CCC(CCCCCC)OC(=O)NCCN1CCCC1 (centres unmarked) [Compound 17, O7-[2,2-bis[7-(2-butyloctanoyloxy)heptanoyloxymethyl]-3-[4-(2-pyrrolidin-1-ylethylcarbamoyloxy)decanoyloxy]propyl]O1-[(Z)-non-3-enyl]heptanedioate]
- Organ Mean Total Flux Femur (Mouse 2, dose 1.0 mg/kg): 8.0 p/s (×10^6)
- Organ Mean Total Flux Heart (Mouse 2, dose 1.0 mg/kg): 13.0 p/s (×10^6)
- Organ Mean Total Flux Kidney (Mouse 2, dose 1.0 mg/kg): 7.6 p/s (×10^6)
- Organ Mean Total Flux Liver (Mouse 2, dose 1.0 mg/kg): 11856 p/s (×10^6)
- Organ Mean Total Flux Lung (Mouse 2, dose 1.0 mg/kg): 59.3 p/s (×10^6)
- Organ Mean Total Flux Muscle (Mouse 2, dose 1.0 mg/kg): 30.7 p/s (×10^6)
- Organ Mean Total Flux Pancreas (Mouse 2, dose 1.0 mg/kg): 3.0 p/s (×10^6)
- Organ Mean Total Flux Spleen (Mouse 2, dose 1.0 mg/kg): 5.5 p/s (×10^6)

Compound: CCCC/C=C\CCOC(=O)CCCCCCCC(=O)OCC(COC(=O)CCCCCCCC(=O)OCC/C=C\CCCC)(COC(=O)CCCCCCCC(=O)OCC/C=C\CCCC)COC(=O)CCC(CCCCCC)OC(=O)NCCN1CCCC1 (centres unmarked) [Compound 21, O9-[2,2-bis[[9-[(Z)-oct-3-enoxy]-9-oxo-nonanoyl]oxymethyl]-3-[4-(2-pyrrolidin-1ylethylcarbamoyloxy)decanoyloxy]propyl]O1-[(Z)-oct-3-enyl]nonanedioate]
- Organ Mean Total Flux Femur (Mouse 11, dose 0.5 mg/kg): 2.0 p/s (×10^6)
- Organ Mean Total Flux Heart (Mouse 11, dose 0.5 mg/kg): 0.8 p/s (×10^6)
- Organ Mean Total Flux Kidney (Mouse 11, dose 0.5 mg/kg): 0.7 p/s (×10^6)
- Organ Mean Total Flux Liver (Mouse 11, dose 0.5 mg/kg): 818.7 p/s (×10^6)
- Organ Mean Total Flux Lung (Mouse 11, dose 0.5 mg/kg): 6.6 p/s (×10^6)
- Organ Mean Total Flux Muscle (Mouse 11, dose 0.5 mg/kg): 4.1 p/s (×10^6)
- Organ Mean Total Flux Pancreas (Mouse 11, dose 0.5 mg/kg): 2.8 p/s (×10^6)
- Organ Mean Total Flux Spleen (Mouse 11, dose 0.5 mg/kg): 2.0 p/s (×10^6)

Compound: CCCCCCCCCOC(=O)CCCCCCC(=O)OCC(COC(=O)CCCCCCC(=O)OCCCCCCCCC)(COC(=O)CCCCCCC(=O)OCCCCCCCCC)COC(=O)CCC(CCCCCC)OC(=O)NCCN1CCCC1 (centres unmarked) [Compound 23, O8-[2,2-bis[(8-nonoxy-8-oxo-octanoy)oxymethyl]-3-[4-(2-pyrrolidin-1-ylethylcarbamoyloxy)decanoyloxy]propyl]O1-nonyl octanedioate]
- Organ Mean Total Flux Femur (Mouse 11, dose 0.5 mg/kg): 1.2 p/s (×10^6)
- Organ Mean Total Flux Heart (Mouse 11, dose 0.5 mg/kg): 2.1 p/s (×10^6)
- Organ Mean Total Flux Kidney (Mouse 11, dose 0.5 mg/kg): 1.2 p/s (×10^6)
- Organ Mean Total Flux Liver (Mouse 11, dose 0.5 mg/kg): 1727 p/s (×10^6)
- Organ Mean Total Flux Lung (Mouse 11, dose 0.5 mg/kg): 15.7 p/s (×10^6)
- Organ Mean Total Flux Muscle (Mouse 11, dose 0.5 mg/kg): 3.0 p/s (×10^6)
- Organ Mean Total Flux Pancreas (Mouse 11, dose 0.5 mg/kg): 0.6 p/s (×10^6)
- Organ Mean Total Flux Spleen (Mouse 11, dose 0.5 mg/kg): 1.7 p/s (×10^6)

Compound: CCCCCCCCCOC(=O)CCCCCC(=O)OCC(COC(=O)CCCCCC(=O)OCCCCCCCCC)(COC(=O)CCCCCC(=O)OCCCCCCCCC)COC(=O)CCC(CCCCCC)OC(=O)NCCN1CCCC1 (centres unmarked) [Compound 24, O7-[2,2-bis[(7-nonoxy-7-oxo-heptanoyl)oxymethyl]-3-[4-(2-pyrrolidin-1-ylethylcarbamoyloxy)decanoyloxy]propyl]O1-nonyl heptanedioate]
- Organ Mean Total Flux Femur (Mouse 6, dose 0.5 mg/kg): 6.3 p/s (×10^6)
- Organ Mean Total Flux Heart (Mouse 6, dose 0.5 mg/kg): 7.1 p/s (×10^6)
- Organ Mean Total Flux Kidney (Mouse 6, dose 0.5 mg/kg): 5.7 p/s (×10^6)
- Organ Mean Total Flux Liver (Mouse 6, dose 0.5 mg/kg): 4153 p/s (×10^6)
- Organ Mean Total Flux Lung (Mouse 6, dose 0.5 mg/kg): 28.8 p/s (×10^6)
- Organ Mean Total Flux Muscle (Mouse 6, dose 0.5 mg/kg): 12.1 p/s (×10^6)
- Organ Mean Total Flux Pancreas (Mouse 6, dose 0.5 mg/kg): 7.9 p/s (×10^6)
- Organ Mean Total Flux Spleen (Mouse 6, dose 0.5 mg/kg): 10.7 p/s (×10^6)

Compound: CCCCC/C=C\CCOC(=O)CCCCCCC(=O)OCC(COC(=O)CCCCCCC(=O)OCC/C=C\CCCCC)(COC(=O)CCCCCCC(=O)OCC/C=C\CCCCC)COC(=O)CCC(CCCC)OC(=O)NCCN1CCCC1 (centres unmarked) [Compound 25, O8-[2,2-bis[[8-[(Z)-non-3-enoxy]-8-oxo-octanoyl]oxymethyl]-3-[4-(2-pyrrolidin-1-ylethylcarbamoyloxy)octanoyloxy]propyl]O1-[(Z)-non-3-enyl]octanedioate]
- Organ Mean Total Flux Femur (Mouse 6, dose 0.5 mg/kg): 4.4 p/s (×10^6)
- Organ Mean Total Flux Heart (Mouse 6, dose 0.5 mg/kg): 1.4 p/s (×10^6)
- Organ Mean Total Flux Kidney (Mouse 6, dose 0.5 mg/kg): 5.9 p/s (×10^6)
- Organ Mean Total Flux Liver (Mouse 6, dose 0.5 mg/kg): 911.0 p/s (×10^6)
- Organ Mean Total Flux Lung (Mouse 6, dose 0.5 mg/kg): 12.5 p/s (×10^6)
- Organ Mean Total Flux Muscle (Mouse 6, dose 0.5 mg/kg): 5.1 p/s (×10^6)
- Organ Mean Total Flux Pancreas (Mouse 6, dose 0.5 mg/kg): 14.3 p/s (×10^6)
- Organ Mean Total Flux Spleen (Mouse 6, dose 0.5 mg/kg): 80.3 p/s (×10^6)

Compound: CCCCC/C=C\CCOC(=O)CCCCCC(=O)OCC(COC(=O)CCCCCC(=O)OCC/C=C\CCCCC)(COC(=O)CCCCCC(=O)OCC/C=C\CCCCC)COC(=O)CCC(CCCC)OC(=O)NCCN1CCCC1 (centres unmarked) [Compound 26, O7-[2,2-bis[[7-[(Z)-non-3-enoxy]-7-oxo-heptanoyl]oxymethyl]-3-[4-(2-pyrrolidin-1-ylethylcarbamoyloxy)octanoyloxy]propyl]O1-[(Z)-non-3-enyl]heptanedioate]
- Organ Mean Total Flux Femur (Mouse 11, dose 0.5 mg/kg): 20.0 p/s (×10^6)
- Organ Mean Total Flux Heart (Mouse 11, dose 0.5 mg/kg): 1.2 p/s (×10^6)
- Organ Mean Total Flux Kidney (Mouse 11, dose 0.5 mg/kg): 4.4 p/s (×10^6)
- Organ Mean Total Flux Liver (Mouse 11, dose 0.5 mg/kg): 481.0 p/s (×10^6)
- Organ Mean Total Flux Lung (Mouse 11, dose 0.5 mg/kg): 26.9 p/s (×10^6)
- Organ Mean Total Flux Muscle (Mouse 11, dose 0.5 mg/kg): 6.2 p/s (×10^6)
- Organ Mean Total Flux Pancreas (Mouse 11, dose 0.5 mg/kg): 8.2 p/s (×10^6)
- Organ Mean Total Flux Spleen (Mouse 11, dose 0.5 mg/kg): 152.7 p/s (×10^6)

Compound: CCCCC/C=C\CCOC(=O)CCCCCCC(=O)OCC(COC(=O)CCCCCCC(=O)OCC/C=C\CCCCC)(COC(=O)CCCCCCC(=O)OCC/C=C\CCCCC)COC(=O)CCC(CCCCCCCC)OC(=O)NCCN1CCCC1 (centres unmarked) [Compound 27, O8-[2,2-bis[[8-[(Z)-non-3-enoxy]-8-oxooctanoyl]oxymethyl]-3-[4-(2-pyrrolidin-1-ylethylcarbamoyloxy)dodecanoyloxy]propyl]O1-[(Z)-non-3-enyl]octanedioate]
- Organ Mean Total Flux Femur (Mouse 11, dose 0.5 mg/kg): 1.1 p/s (×10^6)
- Organ Mean Total Flux Heart (Mouse 11, dose 0.5 mg/kg): 1.7 p/s (×10^6)
- Organ Mean Total Flux Kidney (Mouse 11, dose 0.5 mg/kg): 1.2 p/s (×10^6)
- Organ Mean Total Flux Liver (Mouse 11, dose 0.5 mg/kg): 1441 p/s (×10^6)
- Organ Mean Total Flux Lung (Mouse 11, dose 0.5 mg/kg): 16.4 p/s (×10^6)
- Organ Mean Total Flux Muscle (Mouse 11, dose 0.5 mg/kg): 2.0 p/s (×10^6)
- Organ Mean Total Flux Pancreas (Mouse 11, dose 0.5 mg/kg): 0.5 p/s (×10^6)
- Organ Mean Total Flux Spleen (Mouse 11, dose 0.5 mg/kg): 1.0 p/s (×10^6)

Compound: CCCCC/C=C\CCOC(=O)CCCCCC(=O)OCC(COC(=O)CCCCCC(=O)OCC/C=C\CCCCC)(COC(=O)CCCCCC(=O)OCC/C=C\CCCCC)COC(=O)CCC(CCCCCCCC)OC(=O)NCCN1CCCC1 (centres unmarked) [Compound 28, O7-[2,2-bis[[7-[(Z)-non-3-enoxy]-7-oxo-heptanoyl]oxymethyl]-3-[4-(2-pyrrolidin-1-ylethylcarbamoyloxy)dodecanoyloxy]propyl]O1-[(Z)-non-3-enyl]heptanedioate]
- Organ Mean Total Flux Femur (Mouse 6, dose 0.5 mg/kg): 3.5 p/s (×10^6)
- Organ Mean Total Flux Heart (Mouse 6, dose 0.5 mg/kg): 0.5 p/s (×10^6)
- Organ Mean Total Flux Kidney (Mouse 6, dose 0.5 mg/kg): 0.9 p/s (×10^6)
- Organ Mean Total Flux Liver (Mouse 6, dose 0.5 mg/kg): 278.3 p/s (×10^6)
- Organ Mean Total Flux Lung (Mouse 6, dose 0.5 mg/kg): 10.4 p/s (×10^6)
- Organ Mean Total Flux Muscle (Mouse 6, dose 0.5 mg/kg): 11.6 p/s (×10^6)
- Organ Mean Total Flux Pancreas (Mouse 6, dose 0.5 mg/kg): 0.8 p/s (×10^6)
- Organ Mean Total Flux Spleen (Mouse 6, dose 0.5 mg/kg): 3.5 p/s (×10^6)
